Consider 26 compounds from patent US20030149084A1, “Cytostatic agents” (priority 1998, published 2003).

In one assay the test system is human histiocytic lymphoma cell line (U937). Put plainly: U937 cell proliferation assay (methyl-3H thymidine incorporation). The assay is classed as cell-based. The conditions noted are these: Homo sapiens, U-937, U937 cells; test compound 6 μM; 72 hours in culture, 3 hours pulse; control DMSO 0.08%; n=6. How it is done:
The compounds of examples 1 to 10 were tested the following cell proliferation assay, to determine their respective capacities to inhibit proliferation.
A human histiocytic lymphoma cell line (U937) was seeded into 30 mm^2 tissue culture wells, in the appropriate culture medium supplemented with 10% fetal calf serum at a density of 250 cells/mm^2. Six hours later the test compounds were added in the same culture medium to the cells to give a final concentration of 6 μM. Control wells contained cells supplemented with the same culture medium containing the equivalent amount of drug vehicle, which in this case was DMSO at a final concentration of 0.08%. After 72 hours in culture the cells were pulsed for 3 hours with methyl-^3H Thymidine (20 μCi/ml) and then harvested onto filter mats and DNA associated radioactivity counted. Results are expressed as percentage of control methyl-^3H Thydimine incorporation (n=6±1 stdv).
With `CC(C)C[C@@H](C(=O)N[C@@H](Cc1ccccc1)C(=O)OC1CCCC1)C(C)N(O)C=O` (single isomer, unassigned) [Example 2, diastereomer A], the activity at 6 µM is 21%. Consider `CCCC[C@H](CN(O)C=O)C(=O)N[C@H](C(=O)OC1CCCC1)C(C)(C)C` [Example 3, 2S-{2R-[(Formyl-hydroxy-amino)-methyl]-hexanoylamino}-3,3-dimethyl Butyric Acid Cyclopentyl Ester], for which the activity at 6 µM came to 80%.

`CCCC[C@H](CN(O)C=O)C(=O)N[C@@H](Cc1ccccc1)C(=O)OC1CCCC1` [Example 4, S-{2R-[(Formyl-hydroxy-amino)-methyl]-hexanoylamino}-3-phenyl-propionic Acid Cyclopentyl Ester] showed an activity at 6 µM of 0%.

On to `CCCC[C@H](CN(O)C=O)C(=O)N[C@@H](Cc1ccccc1)C(=O)OC` [Example 7], for which the activity at 6 µM came out at 0%. Same read-out and setting: under `CCCC[C@H](CN(O)C=O)C(=O)N[C@@H](Cc1ccccc1)C(=O)OCC` [Example 8, 2S-{2R-[(Formyl-hydroxy-amino)-methyl]-hexanoylamino)-3-phenyl-propionic Acid Ethyl Ester] stands 0%. Still for that read-out and setting: under `CCCC[C@H](CN(O)C=O)C(=O)N[C@H](C(=O)OC(C)C)C(C)(C)C` [Example 9, 2S-{2R-[(Formyl-hydroxy-amino)-methyl]-hexanoylamino}-3,3-dimethyl Butyric Acid Iso-Propyl Ester] stands 81%; under `CCCC[C@H](CN(O)C=O)C(=O)N[C@H](C(=O)OC1CCC1)C(C)(C)C` [Example 14, 2S-{2R-[(Formyl-hydroxy-amino)-methyl]-hexanoylamino}-3,3-dimethyl Butyric Acid Cyclobutyl Ester], 74%. On the same count and under the same terms, under `CCCC[C@H](CN(O)C=O)C(=O)N[C@H](C(=O)OC1CCCCC1)C(C)(C)C` [Example 15, 2S-{2R-[(Formyl-hydroxy-amino)-methyl]-hexanoylamino}-3,3-dimethyl Butyric Acid Cyclohexyl Ester] stands 75%; under `CCCC[C@H](CN(O)C=O)C(=O)N[C@H](C(=O)OCCOC)C(C)(C)C` [Example 16, 2S-{2R-[(Formyl-hydroxy-amino)-methyl]-hexanoylamino}-3,3-dimethyl Butyric Acid 2-methoxy-ethyl Ester], 89%.

In the case of `CCCC[C@H](CN(O)C=O)C(=O)N[C@H](C(=O)OCC1CCCC1)C(C)(C)C` [Example 18, 2S-{2R-[(Formyl-hydroxy-amino)-methyl]-hexanoylamino}-3,3-dimethyl Butyric Acid Cyclopentylmethyl Ester], the activity at 6 µM was found to be 60%.

On to `CCCC[C@H](CN(O)C=O)C(=O)N[C@@H](Cc1ccccc1)C(=O)OC(C)C` [Example 19, 2S-{2R-[(Formyl-hydroxy-amino)methyl]-hexanoylamino}-3-phenyl-propionic Acid Iso-Propyl Ester], for which the activity at 6 µM is 0%.

Take `CCCC[C@H](CN(O)C=O)C(=O)N[C@H](C(=O)OC)c1ccccc1` [Example 20, S-{2R-[(Formyl-hydroxy-amino)-methyl]-hexanoylamino}-2-phenyl Acetic Acid Methyl Ester]: the activity at 6 µM is 53%. As to `CCCC[C@H](CN(O)C=O)C(=O)N[C@H](C(=O)OC(C)(C)C)c1ccccc1` [Example 21, S-{2R-[(Formyl-hydroxy-amino)-methyl]-hexanoylamino}-2-phenyl Acetic Acid Tert-Butyl Ester], the activity at 6 µM amounted to 90%.

For the compound `CCC[C@@H]([C@@H](CC(C)C)C(=O)N[C@@H](COC(C)(C)C)C(=O)OC1CCCC1)N(O)C=O` [Example 23, 3-tert-Butoxy-2S-[3S-(formyl-hydroxy-amino)-2R-isobutyl-hexanoylamino]-propionic Acid Cyclopentyl Ester], the activity at 6 µM was 5%. As to `CCC[C@@H]([C@@H](Cc1ccccc1)C(=O)N[C@@H](COC(C)(C)C)C(=O)OC1CCCC1)N(O)C=O` [Example 24, 2S-[2R-Benzyl-3S-(formyl-hydroxy-amino)-hexanoylamino]-3-tert-butoxypropionic Acid Cyclopentyl Ester], the activity at 6 µM was 0%. The same measure, in the same setting: as for `CCC[C@@H]([C@@H](CC(C)C)C(=O)N[C@H](C(=O)OCC)c1ccccc1)N(O)C=O` [Example 25, S-[3S-(Formyl-hydroxy-amino)-2R-isobutyl-hexanoylamino]-phenyl-acetic Acid Ethyl Ester], the figure is 3%; as for `CCC[C@@H]([C@@H](CC(C)C)C(=O)N[C@H](C(=O)OCCOC)c1ccccc1)N(O)C=O` [Example 26, S-[3S-(Formyl-hydroxy-amino)-2R-isobutyl-hexanoylamino]-phenyl-acetic Acid Methoxyethyl Ester], 10%; as for `CCC[C@@H]([C@@H](Cc1ccccc1)C(=O)N[C@@H](Cc1ccccc1)C(=O)OC1CCCC1)N(O)C=O` [Example 27, 2S-[2R-Benzyl-3S-(formyl-hydroxy-amino)hexanoylamino]-3-phenyl-propionic Acid Cyclopentyl Ester], 0%. The same measure, in the same setting: as for `CCC[C@@H]([C@@H](Cc1ccccc1)C(=O)N[C@H](C(=O)OC1CCCC1)c1ccccc1)N(O)C=O` [Example 28, S-[2R-Benzyl-3S-(formyl-hydroxy-amino)hexanoylamino]-phenyl-acetic Acid Cyclopentyl Ester], the figure is 0%. On the same count and under the same terms, under `CCC[C@@H]([C@@H](Cc1ccccc1)C(=O)N[C@H](C(=O)OCCOC)c1ccccc1)N(O)C=O` [Example 29, S-[2R-Benzyl-3S-(formyl-hydroxy-amino)hexanoylamino]-phenyl-acetic Acid Methoxyethyl Ester] stands 0%; under `CCC[C@@H]([C@@H](CC(C)C)C(=O)N[C@H](C(=O)OCC1CCCC1)c1ccccc1)N(O)C=O` [Example 32, S-[3S-(Formyl-hydroxy-amino)-2R-isobutyl-hexanoylamino]-phenyl-acetic Acid Cyclopentylmethyl Ester], 8%.

The assay is the same for the next values; noted with them: U937 cells; 6 μM; comparison compound.
Consider `O=c1[nH]cc(F)c(=O)[nH]1` [5-fluorouracil, reference compound], for which the “activity in the U937 assay, % of that observed with the vehicle alone” value is listed as 50%.

The same assay, now with this note: U937 cells; test compound 6 μM; 72 hours in culture, 3 hours pulse; control DMSO 0.08%; n=6.
As to `CCCC[C@H](CN(O)C=O)C(=O)N[C@H](C(=O)OC1CCCC1)C(C)C` [Example 6, 2S-{2R-[(Formyl-hydroxy-amino)-methyl]-hexanoylamino}-3-methyl Butyric Acid Cyclo-Pentyl Ester], the “% of Control methyl-^3H Thymidine Incorporation” value was 0%.

Staying with this assay, now noted: U937 cells; test compound 6 μM; 72 hours in culture, 3 hours pulse; control DMSO 0.08%; n=6; 6 µM.
Turning to `O=CN(O)CC(Cc1ccccc1)C(=O)N[C@@H](Cc1ccccc1)C(=O)OC1CCCC1` (single isomer, unassigned) [Example 1, diastereomer A, 2S-[2-benzyl-3-(formyl-hydroxy-amino)propionylamino]-3-phenyl-propionic acid cyclopentyl ester], the “% of Control methyl-^3H Thymidine Incorporation” value is 0%. Still for that read-out and setting: as for `O=CN(O)CC(Cc1ccccc1)C(=O)N[C@@H](Cc1ccccc1)C(=O)OC1CCCC1` (single isomer, unassigned) [Example 1, diastereomer B, 2S-[2-benzyl-3-(formyl-hydroxy-amino)propionylamino]-3-phenyl-propionic acid cyclopentyl ester], the figure is 73%; as for `CC(C)C[C@@H](C(=O)N[C@@H](Cc1ccccc1)C(=O)OC1CCCC1)C(C)N(O)C=O` (single isomer, unassigned) [Example 2, diastereomer B], 17%.
